For assay [1], the target named is T1, Adenosine receptor A1 (Homo sapiens) (UniProt P30542).
T1 sequence (whole entry): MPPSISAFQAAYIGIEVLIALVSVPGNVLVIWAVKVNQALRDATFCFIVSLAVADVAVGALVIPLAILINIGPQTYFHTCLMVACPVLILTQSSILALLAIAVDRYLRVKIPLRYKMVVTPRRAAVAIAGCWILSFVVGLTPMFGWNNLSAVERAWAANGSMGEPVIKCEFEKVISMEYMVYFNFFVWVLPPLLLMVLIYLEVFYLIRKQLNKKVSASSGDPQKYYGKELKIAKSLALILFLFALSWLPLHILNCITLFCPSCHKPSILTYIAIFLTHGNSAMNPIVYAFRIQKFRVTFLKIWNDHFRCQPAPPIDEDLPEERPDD
Description: Dissociation constant against Adenosine A1 receptor

For a further assay, the target named is T2, Adenosine receptor A1 (Homo sapiens, UniProt P30542).
T2 sequence (P30542 whole entry): T1 sequence (whole entry)

Assay [2] has as its target T3, Progesterone receptor (Homo sapiens, UniProt P06401).
T3 sequence (P06401 whole entry): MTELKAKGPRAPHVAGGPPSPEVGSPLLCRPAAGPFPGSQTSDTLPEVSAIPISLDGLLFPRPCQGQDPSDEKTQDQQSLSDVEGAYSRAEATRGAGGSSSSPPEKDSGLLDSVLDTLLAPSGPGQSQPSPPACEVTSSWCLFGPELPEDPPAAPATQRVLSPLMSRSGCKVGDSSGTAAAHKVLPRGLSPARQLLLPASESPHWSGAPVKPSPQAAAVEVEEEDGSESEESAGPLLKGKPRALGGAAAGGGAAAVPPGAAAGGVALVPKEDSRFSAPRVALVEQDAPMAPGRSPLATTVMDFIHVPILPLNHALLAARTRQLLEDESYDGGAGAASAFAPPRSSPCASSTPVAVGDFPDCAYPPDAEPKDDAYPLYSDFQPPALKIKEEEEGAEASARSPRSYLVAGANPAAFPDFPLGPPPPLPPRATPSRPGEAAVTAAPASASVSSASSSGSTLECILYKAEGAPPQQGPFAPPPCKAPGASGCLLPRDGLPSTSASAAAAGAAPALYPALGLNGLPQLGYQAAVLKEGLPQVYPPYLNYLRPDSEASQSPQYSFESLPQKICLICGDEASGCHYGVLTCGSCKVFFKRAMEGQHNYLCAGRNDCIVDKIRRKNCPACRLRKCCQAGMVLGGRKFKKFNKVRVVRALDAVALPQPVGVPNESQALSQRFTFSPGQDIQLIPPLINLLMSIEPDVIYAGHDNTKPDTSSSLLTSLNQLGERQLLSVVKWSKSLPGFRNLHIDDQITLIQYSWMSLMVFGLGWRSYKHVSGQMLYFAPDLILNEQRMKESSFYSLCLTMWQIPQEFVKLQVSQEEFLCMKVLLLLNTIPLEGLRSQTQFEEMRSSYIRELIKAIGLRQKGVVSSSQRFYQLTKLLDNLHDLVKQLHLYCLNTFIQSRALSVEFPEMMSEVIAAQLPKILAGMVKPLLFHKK
Put plainly: Dissociation constant for [3H]ORG2058 at human progesterone receptor at 308 K.

Assay [3] addresses T3, Progesterone receptor. In words: Dissociation constant for [3H]ORG2058 at human progesterone receptor at 298 K.
The target in assay [4] is T3, Progesterone receptor. Put plainly: Dissociation constant for [3H]ORG2058 at human progesterone receptor at 303 K.
For assay [5], the target named is T3, Progesterone receptor. Put plainly: Dissociation constant for [3H]-ORG2058 at human progesterone receptor at 283 K.
For assay [6], the target named is T3, Progesterone receptor. In words: Dissociation constant for [3H]ORG2058 at human progesterone receptor at 273 K.
In assay [7] the target is T3, Progesterone receptor. Put plainly: Dissociation constant for [3H]-ORG2058 at human progesterone receptor at 278 K.
In assay [8] the target is T3, Progesterone receptor. In words: Dissociation constant for [3H]ORG2058 at human progesterone receptor at 293K.
Assay [9] has as its target T3, Progesterone receptor. In words: Dissociation constant for [3H]ORG2058 at human progesterone receptor at 288 K.
Assay [10] deals with T3, Progesterone receptor. In words: Dissociation constant for [3H]-ORG2058 at human progesterone receptor at 310K.

In ChEMBL document CHEMBL1142733, “Binding thermodynamics as a tool to investigate the mechanisms of drug-receptor interactions: thermodynamics of cytoplasmic steroid/nuclear receptors in comparison with membrane receptors” (J Med Chem, 2005) one finds KD hydro and Kd data, which are given here for three compounds.

Structures are written as SMILES.

Usually Kd stands for the free concentration of one partner at which half of the binding sites on the other are occupied at equilibrium, for simple one-to-one binding. Read a low Kd as higher affinity.

`CC(C)Cn1c(=O)n(C)c(=O)c2nc[nH]c21` showed a KD hydro in [1] of 19000 µM.
On Adenosine receptor A1, `CC(C)Cn1c(=O)n(C)c(=O)c2[nH]cnc21` [ISOBUTYLMETHYLXANTHINE] had a dissociation constant (Kd) of 5.9 µM.
Regarding `CC[C@@H]1C[C@H]2[C@@H]3CCC4=CC(=O)CC[C@@H]4[C@H]3CC[C@]2(C)[C@H]1C(=O)CO`, the Kd on Progesterone receptor [2] was 0.00456 µM; on Progesterone receptor [3] it was 0.00316 µM; at Progesterone receptor [4], 0.00413 µM; at Progesterone receptor [5] it was 0.00249 µM; on Progesterone receptor [6] it was 0.00328 µM; on Progesterone receptor [7], 0.0027 µM. Moreover, the dissociation constant Kd at Progesterone receptor [8] came out at 0.00264 µM; at Progesterone receptor [9] it was 0.00232 µM; on Progesterone receptor [10] it was 0.00542 µM.
